Measured values published in patent publication US9999622B2, “Pyrazolothiazole compound and medicine comprising same” (NIPPON SHINYAKU CO., LTD., priority 2014, dated 2018).
Where a name gives a salt, the structure may show the parent alone.

Columns and labels:
Format in all cases: biochemical
JAK2 = biological target: T1, JAK2 (Homo sapiens, UniProt O60674); assay: JAK tyrosine kinase inhibitory activity in the presence of 1 mM ATP (ELISA), JAK2
T1 construct: purchased Carna Biosciences, Inc
Summary of the method: (§1)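 Recombinant kinase (7.5 nM JAK1; 0.75 nM JAK2, JAK3 working dilutions) reacted 1 h at 30 °C with 1 mM ATP in Tris-HCl pH 7.5, Tween-20, DTT, on streptavidin plates. Phosphotyrosine detected by HRP anti-pTyr antibody ELISA, TMB absorbance at 450 nm; duplicate wells, DMSO as negative control.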

JAK1 = biological target: T2, JAK1 (Homo sapiens, UniProt P23458); assay: JAK tyrosine kinase inhibitory activity in the presence of 1 mM ATP (ELISA), JAK1
T2 construct: purchased Carna Biosciences, Inc
T2 sequence (P23458 whole entry): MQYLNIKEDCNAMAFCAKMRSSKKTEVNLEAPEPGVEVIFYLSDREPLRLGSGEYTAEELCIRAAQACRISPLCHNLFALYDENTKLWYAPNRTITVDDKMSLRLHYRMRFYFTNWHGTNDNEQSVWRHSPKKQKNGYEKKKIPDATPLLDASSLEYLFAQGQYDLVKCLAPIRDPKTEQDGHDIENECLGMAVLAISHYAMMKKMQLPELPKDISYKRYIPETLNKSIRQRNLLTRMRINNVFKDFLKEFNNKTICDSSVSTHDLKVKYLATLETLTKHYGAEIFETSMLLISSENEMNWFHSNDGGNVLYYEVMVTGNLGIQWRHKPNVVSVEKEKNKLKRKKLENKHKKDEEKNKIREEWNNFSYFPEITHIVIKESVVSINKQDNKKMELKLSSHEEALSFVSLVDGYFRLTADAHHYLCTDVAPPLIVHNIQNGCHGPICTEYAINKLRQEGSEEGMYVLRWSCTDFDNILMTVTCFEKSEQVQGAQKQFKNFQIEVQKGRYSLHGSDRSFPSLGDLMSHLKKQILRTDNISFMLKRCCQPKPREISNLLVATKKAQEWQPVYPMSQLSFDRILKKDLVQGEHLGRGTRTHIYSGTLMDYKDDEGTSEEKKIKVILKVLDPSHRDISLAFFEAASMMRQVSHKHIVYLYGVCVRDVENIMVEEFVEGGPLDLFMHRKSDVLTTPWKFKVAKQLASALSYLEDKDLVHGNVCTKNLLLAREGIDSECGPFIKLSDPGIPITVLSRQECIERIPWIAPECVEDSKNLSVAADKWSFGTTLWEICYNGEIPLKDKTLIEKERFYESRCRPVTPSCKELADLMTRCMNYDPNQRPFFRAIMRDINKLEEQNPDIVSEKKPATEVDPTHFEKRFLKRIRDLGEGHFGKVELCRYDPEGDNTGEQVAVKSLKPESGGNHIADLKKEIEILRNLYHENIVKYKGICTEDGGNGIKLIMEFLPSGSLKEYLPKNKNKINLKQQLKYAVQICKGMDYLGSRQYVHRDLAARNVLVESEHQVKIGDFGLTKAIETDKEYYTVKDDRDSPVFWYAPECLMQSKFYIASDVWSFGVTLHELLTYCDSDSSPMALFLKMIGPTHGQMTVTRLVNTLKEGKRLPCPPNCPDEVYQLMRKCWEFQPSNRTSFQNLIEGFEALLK
Summary of the method: as §1

JAK3 = biological target: T3, JAK3 (Homo sapiens, UniProt P52333); assay: JAK tyrosine kinase inhibitory activity in the presence of 1 mM ATP (ELISA), JAK3
T3 construct: purchased Carna Biosciences, Inc
T3 sequence (P52333 1-1124): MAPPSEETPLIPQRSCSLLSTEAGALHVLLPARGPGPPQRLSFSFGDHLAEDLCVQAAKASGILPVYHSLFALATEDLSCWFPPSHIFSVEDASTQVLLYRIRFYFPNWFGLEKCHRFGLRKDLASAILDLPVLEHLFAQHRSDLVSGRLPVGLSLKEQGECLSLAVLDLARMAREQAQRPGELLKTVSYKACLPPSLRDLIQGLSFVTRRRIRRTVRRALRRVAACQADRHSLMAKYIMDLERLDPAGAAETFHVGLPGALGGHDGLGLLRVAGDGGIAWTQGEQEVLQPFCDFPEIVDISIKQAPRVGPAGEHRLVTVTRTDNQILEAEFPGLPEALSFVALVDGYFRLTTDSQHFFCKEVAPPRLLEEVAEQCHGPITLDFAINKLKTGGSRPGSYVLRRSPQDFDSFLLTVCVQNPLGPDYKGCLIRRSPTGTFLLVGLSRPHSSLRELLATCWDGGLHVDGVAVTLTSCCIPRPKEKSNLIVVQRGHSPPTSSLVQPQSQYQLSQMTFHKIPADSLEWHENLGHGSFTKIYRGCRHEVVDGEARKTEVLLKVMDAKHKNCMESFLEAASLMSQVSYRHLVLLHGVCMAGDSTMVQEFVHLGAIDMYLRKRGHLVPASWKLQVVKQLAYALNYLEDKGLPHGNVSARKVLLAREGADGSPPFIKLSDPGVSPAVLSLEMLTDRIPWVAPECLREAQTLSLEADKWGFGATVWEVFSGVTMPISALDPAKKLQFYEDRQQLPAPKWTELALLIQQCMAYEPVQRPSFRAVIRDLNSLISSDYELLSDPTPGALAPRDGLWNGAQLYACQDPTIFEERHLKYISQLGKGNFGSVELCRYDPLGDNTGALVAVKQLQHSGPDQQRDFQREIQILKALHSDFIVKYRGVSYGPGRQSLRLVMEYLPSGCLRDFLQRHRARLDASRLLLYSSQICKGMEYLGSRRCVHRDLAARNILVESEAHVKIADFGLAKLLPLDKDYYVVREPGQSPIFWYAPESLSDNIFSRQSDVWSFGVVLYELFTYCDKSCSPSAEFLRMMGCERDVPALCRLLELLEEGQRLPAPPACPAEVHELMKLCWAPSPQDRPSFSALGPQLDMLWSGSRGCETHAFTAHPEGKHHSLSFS
Summary of the method: as §1

T1 sequence (O60674 whole entry): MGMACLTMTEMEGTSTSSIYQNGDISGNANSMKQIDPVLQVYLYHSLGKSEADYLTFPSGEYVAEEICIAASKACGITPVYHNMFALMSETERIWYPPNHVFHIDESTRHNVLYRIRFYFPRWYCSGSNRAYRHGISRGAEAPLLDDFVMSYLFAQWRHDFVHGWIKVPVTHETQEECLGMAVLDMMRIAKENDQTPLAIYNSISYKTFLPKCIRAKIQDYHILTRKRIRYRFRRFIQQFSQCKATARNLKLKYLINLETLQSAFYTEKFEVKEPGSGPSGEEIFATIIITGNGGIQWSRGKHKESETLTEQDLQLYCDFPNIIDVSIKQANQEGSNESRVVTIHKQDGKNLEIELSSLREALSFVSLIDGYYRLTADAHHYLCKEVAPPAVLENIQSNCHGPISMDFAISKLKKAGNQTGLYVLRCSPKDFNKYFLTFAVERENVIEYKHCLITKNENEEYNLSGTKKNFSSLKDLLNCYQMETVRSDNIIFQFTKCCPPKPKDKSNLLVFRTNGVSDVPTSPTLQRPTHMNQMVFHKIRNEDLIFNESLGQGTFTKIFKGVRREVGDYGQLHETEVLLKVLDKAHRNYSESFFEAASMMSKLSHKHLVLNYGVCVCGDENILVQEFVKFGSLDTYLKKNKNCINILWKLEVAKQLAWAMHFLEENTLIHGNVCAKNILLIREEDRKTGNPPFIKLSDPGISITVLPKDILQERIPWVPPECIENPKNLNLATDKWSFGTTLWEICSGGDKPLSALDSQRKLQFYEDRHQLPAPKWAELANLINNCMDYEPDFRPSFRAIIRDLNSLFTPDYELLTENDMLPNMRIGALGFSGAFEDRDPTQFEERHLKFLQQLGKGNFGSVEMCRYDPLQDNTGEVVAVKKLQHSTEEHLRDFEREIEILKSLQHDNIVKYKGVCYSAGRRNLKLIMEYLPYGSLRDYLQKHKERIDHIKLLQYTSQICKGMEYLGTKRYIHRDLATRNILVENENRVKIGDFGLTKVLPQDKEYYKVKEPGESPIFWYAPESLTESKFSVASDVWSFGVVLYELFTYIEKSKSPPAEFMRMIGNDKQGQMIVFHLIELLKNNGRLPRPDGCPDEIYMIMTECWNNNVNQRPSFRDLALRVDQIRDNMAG

SMILES	IC50 (JAK2) [nM]	IC50 (JAK1) [nM]	IC50 (JAK3) [nM]
CC(C)(C)[C@@H](CO)Nc1cc(C(=O)N2CCC(NC(=O)C3CC3)CC2)nc(-c2cnn3ccsc23)n1 [Example 55, N-(1-{[6-{[(2S)-1-Hydroxy-3,3-dimethylbutan-2-yl]amino}-2-(pyrazolo[5,1-b][1,3]thiazol-7-yl)pyrimidin-4-yl]carbonyl}piperidin-4-yl)cyclopropanecarboxamide]	> 10000	140	> 10000
COc1ccc([C@@H](C)Nc2cc(C(=O)N3CCC(O)CC3)nc(-c3cnn4ccsc34)n2)cc1 [Example 56, (4-Hydroxypiperidin-1-yl) [6-{[(1R)-1-(4-methoxyphenyl)ethyl]amino}-2-(pyrazolo[5,1-b][1,3]thiazol-7-yl)pyrimidin-4-yl]methanone]	7300	940	> 10000
COC(=O)NC1CCN(C(=O)c2cc(N[C@H]3CCN(C(=O)OC(C)(C)C)C3)nc(-c3cnn4ccsc34)n2)CC1 [Example 147, tert-Butyl (3S)-3-{[6 {(4 [(methoxycarbonyl)amino]piperidin-1-yl}carbonyl)-2-(pyrazolo[5,1-b][1,3]thiazol-7-yl)pyrimidin-4-yl]amino}pyrrolidine-1-carboxylate]	> 10000	2600	> 10000
COC(=O)NC1CCN(C(=O)c2cc(N[C@@H]3CCN(C(=O)C4CC4)C3)nc(-c3cnn4ccsc34)n2)CC1 [Example 205, Methyl 1-[6-[(3R)-1-(cyclopropanecarbonyl)pyrrolidin-3-yl]amino-2-(pyrazolo[5,1-b][1,3]thiazol-7-yl)pyrimidine-4-carbonyl]piperidin-4-ylcarbamate]	> 10000	850	> 10000
COC(=O)NC1CCN(C(=O)c2cc(N[C@@H]3CCN(C(=O)C4CCC4)C3)nc(-c3cnn4ccsc34)n2)CC1 [Example 206, Methyl 1-[6-[(3R)-1-(cyclobutanecarbonyl)pyrrolidin-3-yl]amino-2-(pyrazolo[5,1-b][1,3]thiazol-7-yl)pyrimidine-4-carbonyl]piperidin-4-ylcarbamate]	> 10000	940	> 10000
C[C@@H](Nc1cc(C(=O)N2CCC(NC(=O)C3CCCCC3)CC2)nc(-c2cnn3ccsc23)n1)C(C)(C)C [Example 182, N-1-[6-[(2R)-3,3-dimethylbutan-2-yl]amino-2-(pyrazolo[5,1-b][1,3]thiazol-7-yl)pyrimidine-4-carbonyl]piperidin-4-ylcyclohexanecarboxamide]	5400	88	1700
COC(=O)NC1CCN(C(=O)c2cc(NCC(F)(F)F)nc(-c3cnn4ccsc34)n2)CC1 [Example 158, Methyl (1-2-(pyrazolo[5,1-b][1,3]thiazol-7-yl)-6-[(2,2,2-trifluoroethyl)amino]pyrimidine-4-carbonylpiperidin-4-yl)carbamate]	> 10000	1300	> 10000
COC(=O)NC1CCN(C(=O)c2cc(NC3CCNCC3)nc(-c3cnn4ccsc34)n2)CC1 [Example 143, Methyl (1-{[6-(piperidin-4-ylamino)-2-(pyrazolo[5,1-b][1,3]thiazol-7-yl)pyrimidin-4-yl]carbonyl}piperidin-4 yl)carbamate dihydrochloride]	> 10000	1900	> 10000
COC(=O)NC1CCN(C(=O)c2cc(NCC(C)(C)CC3CC3)nc(-c3cnn4ccsc34)n2)CC1 [Example 174, Methyl (1-6-[(3-cyclopropyl-2,2-dimethylpropyl)amino]-2-(pyrazolo[5,1-b][1,3]thiazol-7-yl)pyrimidine-4-carbonylpiperidin-4-yl)carbamate]	> 10000	300	5600
N#CCC(=O)N1CC[C@@H](Nc2cc(C(=O)N3CCC(NC(=O)C4CC4)CC3)nc(-c3cnn4ccsc34)n2)C1 [Example 191, N-1-[6-[(3R)-1-(cyanoacetyl)pyrrolidin-3-yl]amino-2-(pyrazolo[5,1-b][1,3]thiazol-7-yl)pyrimidine-4-carbonyl]piperidin-4-ylcyclopropanecarboxamide]	> 10000	52	> 10000
COC(=O)NC1CCN(C(=O)c2cc(NC3CCN(C(=O)OC(C)(C)C)CC3)nc(-c3cnn4ccsc34)n2)CC1 [Example 142, tert-Butyl 4-{[6-({4-[(methoxycarbonyl)amino]piperidin-1-yl}carbonyl)-2-(pyrazolo[5,1-b][1,3]thiazol-7-yl)pyrimidin-4-yl]amino}piperidine-1-carboxylate]	> 10000	1200	> 10000
CCCCCCC(=O)NC1CCN(C(=O)c2cc(N[C@H](C)C(C)(C)C)nc(-c3cnn4ccsc34)n2)CC1 [Example 195, N-1-[6-[(2R)-3,3-dimethylbutan-2-yl]amino-2-(pyrazolo[5,1-b][1,3]thiazol-7-yl)pyrimidine-4-carbonyl]piperidin-4-ylheptanamide]	9000	310	4900

The next compounds have a lower IC50 (JAK2) than those just listed; values first:

IC50 (JAK2) [nM]	IC50 (JAK1) [nM]	IC50 (JAK3) [nM]	SMILES
4400	710	6500	CO[C@H]1CCC[C@@H]1Nc1cc(C(=O)N2CCC(NC(=O)C3CC3)CC2)nc(-c2cnn3ccsc23)n1 [Example 19, N-(1-{[6-{[(1S,2S)-2-Methoxycyclopentyl]amino}-2-(pyrazolo[5,1-b][1,3]thiazol-7-yl)pyrimidin-4-yl]carbonyl}piperidin-4-yl)cyclopropanecarboxamide]
3700	200	4000	CCOC(=O)NC1CCN(C(=O)c2cc(NC(C)(C)C)nc(-c3cnn4ccsc34)n2)CC1 [Example 71, Ethyl (1-{[6-(tert-butylamino)-2-(pyrazolo[5,1-b][1,3]thiazol-7-yl)pyrimidin-4-yl]carbonyl}piperidin-4-yl)carbamate]
1900	210	3800	CCC(=O)NC1CCN(C(=O)c2cc(N(C)C(CC)CC)nc(-c3cnn4ccsc34)n2)CC1 [Example 116, N-[1-({6-[Methyl(pentan-3-yl)amino]-2-(pyrazolo[5,1-b][1,3]thiazol-7-yl)pyrimidin-4-yl}carbonyl)piperidin-4-yl]propanamide]
1800	240	2800	CC(=O)NC1CCN(C(=O)c2nc(-c3cnn4ccsc34)nc(N[C@@H](C)C(C)(C)C)c2C)CC1 [Example 6, N-(1-{[6-{[(2S)-3,3-Dimethylbutan-2-yl]amino}-5-methyl-2-(pyrazolo[5,1-b][1,3]thiazol-7-yl)pyrimidin-4-yl]carbonyl}piperidin-4-yl)acetamide]
2300	310	1700	Cc1c(N[C@@H](C)C2CC2)nc(-c2cnn3ccsc23)nc1C(=O)N1CCC(NC(=O)C(F)F)CC1 [Example 18, N-(1-{[6-{[(1S)-1-Cyclopropylethyl]amino}-5-methyl-2-(pyrazolo[5,1-b][1,3]thiazol-7-yl)pyrimidin-4-yl]carbonyl}piperidin-4-yl)-2,2-difluoroacetamide]
1800	98	3100	COCCOC(=O)NC1CCN(C(=O)c2cc(NC(C)(C)C)nc(-c3cnn4ccsc34)n2)CC1 [Example 101]
5100	230	5800	C[C@@H](COC(F)F)Nc1cc(C(=O)N2CCC(NC(=O)C3CC3)CC2)nc(-c2cnn3ccsc23)n1 [Example 17, N-(1-{[6-{[(2S)-1-(Difluoromethoxy)propan-2-yl]amino}-2-(pyrazolo[5,1-b][1,3]thiazol-7-yl)pyrimidin-4-yl]carbonyl}piperidin-4-yl)cyclopropanecarboxamide]
790	73	2100	CCS(=O)(=O)NC1CCN(C(=O)c2cc(N[C@@H](C)C3CC3)nc(-c3cnn4ccsc34)n2)CC1 [Example 68, N-(1-{[6-{[(1S)-1-Cyclopropylethyl]amino}-2-(pyrazolo[5,1-b][1,3]thiazol-7-yl)pyrimidin-4-yl]carbonyl}piperidin-4-yl)ethanesulfonamide]
